Data: patent US12459930B2, “Compounds for the inhibition of unregulated cell growth” (GODAVARI BIOREFINERIES LIMITED, priority 2018, dated 2025)
Where a name gives a salt, the structure may show the parent alone. Read-outs that look alike come from different tables or passages of the source.

How the values were obtained:
[1] = test system: PC3 prostate cancer cell line; test: In vitro antiproliferative assay (MTT assay), PC3; type: cell-based; conditions: 48 h, 48 hrs drug incubation, read-out: IC50 in micromolar, PC3 (MTT assay)
Procedure: (§1) MTT assay is a simple and sensitive assay where, metabolic reducing activity of the cells is measured. The increase of this activity in time is taken as a parameter of cell growth. If treatment with a drug impairs this increase, the action is a consequence of growth inhibition, cell killing or both. […] All cell lines were cultured in a 37° C. incubator with a 5% CO2 environment. Compounds were dissolved in DMSO with a concentration of 0.1M (stock solution). Cells were seeded into 96-well plates at suitable plating efficiency.
(§2) Following plating efficiencies were standardized for MTT assay:
(§3) In the MTT procedure, the cells were plated in 96 well plates as per predetermined plating efficiency (Table1). The plates were then incubated for 24 hrs in 5% CO2 atmosphere at 37° C. Appropriate concentrations of the drugs were then added to the plate and further incubation was carried out for 48 hrs (in 5% CO2 atmosphere at 37° C.). The assay plate was then centrifuged twice at 3000 rpm for 3 mins and supernatant was then discarded. 100 ul of MTT solution (0.5 mg/ml) was then added to each well of the plate and it was further incubated for 4 hrs (in 5% CO2 atmosphere at 37° C.) Following 4 hr incubation, the plate was then centrifuged twice, and supernatant was aspirated off very carefully. 200 ul of DMSO was then added to each well to solubilize. MTT crystals and mixed well by shaking the plate. XY graph of log percent viability was then plotted against log drug concentration.

[2] = test system: DU145 prostate cancer cell line; test: In vitro antiproliferative assay (MTT assay), DU145; type: cell-based; conditions: 48 hrs drug incubation, read-out: IC50 in micromolar, DU145 (MTT assay)
Procedure: as §1, §2, §3

[3] = test system: PC3 spheres (cancer stem cells); test: In vitro sphere-forming assay (cancer stem cells), PC3 in Prostosphere media; conditions: for 3D sphere count of PC3 in Prostosphere media: 2000 cells/well, n = 6 ± S.D; for viability at 0.0025 µM: read-out: % Viability of spheres (PC3), 0.0025 uM; for viability at 0.025 µM: read-out: % Viability of spheres (PC3), 0.025 uM; for viability at 0.25 µM: read-out: % Viability of spheres (PC3), 0.25 uM; for viability at 2.5 µM: read-out: % Viability of spheres (PC3), 2.5 uM; for viability at 25 µM: read-out: % Viability of spheres (PC3), 25 uM
[4] = test system: MDAMB231 breast cancer cell line; test: Soft agar colony-formation assay, MDAMB231; type: cell-based; conditions: 1 week, Alamar Blue, read-out: IC50 in micromolar, MDAMB231 (Soft Agar Assay)
Procedure: (§4) The Soft Agar Colony-formation Assay is an anchorage-independent growth assay in soft agar, which is one of the most stringent assays for detecting malignant transformation of cells. For this assay, malignant cells are cultured with appropriate controls in soft agar medium for 1-2 weeks. Following this incubation period, formed colonies can either be analyzed morphologically using cell stain and quantifying the number of colonies formed.
(§5) Briefly, for Soft Agar Assay a mixture of 50 ul of 2× medium (taken appropriately as per cell line) and 50 ul of 1.2% Bacto Agar were plated on to each well of 96 well micro titer assay plate. 10 ul of cells (of specific plating efficiency pre standardized for respective cell line) were mixed with 20 ul of 2× medium and 30 ul of 0.8% of Bacto Agar and 1.6 ul of drug (of appropriate concentration) in a vial and transferred to the solidified pre layers of the assay plates. The cells were then allowed to grow and form colonies at 37° C. and 5% C02 for 1 week. An intermittent feeding with 50 ul of appropriate 2× medium was performed after 3 days of experimental set up. 16 ul of Alamar Blue (1.5 mg/ml) was then added to all the wells to quantify the developed colonies. The plates were incubated for 24 hrs at 37° C. Absorbance was then measured at 630 nm. XY graph of log Percent viability was then plotted against log drug concentration.
(§6) Following plating efficiencies were standardized for Soft Agar Assay: […]

[5] = test system: PC3 prostate cancer cell line; test: Soft agar colony-formation assay, PC3; type: cell-based; conditions: 1 week, Alamar Blue, read-out: IC50 in micromolar, PC3 (Soft Agar Assay)
Procedure: as §4, §5, §6

[6] = test system: MDAMB231 spheres (cancer stem cells); test: In vitro sphere-forming assay (cancer stem cells), MDAMB231 in Mammosphere media; conditions: for 3D sphere count of MDAMB231 in Mammosphere media: 2000 cells/well, n = 6 ± S.D; for viability at 0.0025 µM / viability at 0.025 µM / viability at 0.25 µM / viability at 2.5 µM / viability at 25 µM: Homo sapiens, MDA-MB-231, read-out: % Viability of spheres (MDAMB231)
[7] = test system: MDAMB231 breast cancer cell line; test: In vitro antiproliferative assay (MTT assay), MDAMB231; type: cell-based; conditions: 48 hrs drug incubation, read-out: IC50 in micromolar, MDAMB231 (MTT assay)
Procedure: as §1, §2, §3

[8] = Homo sapiens, MDA-MB-231, 168 h

| Compound | IC50 [1] [µM] | IC50 ([2]; Homo sapiens, DU-145, 48 h) [µM] | IC50 ([5]; 168 h) [µM] | IC50 ([7]; Homo sapiens, MDA-MB-231, 48 h) [µM] | 3D sphere count of PC3 in Prostosphere media ([3]; 0.0025 uM) | 3D sphere count of PC3 in Prostosphere media ([3]; 0.025 uM) | 3D sphere count of PC3 in Prostosphere media ([3]; 0.25 uM) | 3D sphere count of PC3 in Prostosphere media ([3]; 2.5 uM) | 3D sphere count of PC3 in Prostosphere media ([3]; 25 uM) | viability at 0.0025 µM ([3]; GCD = 100% viability) [%] | viability at 0.025 µM ([3]; GCD = 100% viability) [%] | viability at 0.25 µM ([3]; GCD = 100% viability) [%] | viability at 2.5 µM ([3]; GCD = 100% viability) [%] | viability at 25 µM ([3]; GCD = 100% viability) [%] | 3D sphere count of MDAMB231 in Mammosphere media ([6]; 0.0025 uM) | 3D sphere count of MDAMB231 in Mammosphere media ([6]; 0.025 uM) | 3D sphere count of MDAMB231 in Mammosphere media ([6]; 0.25 uM) | 3D sphere count of MDAMB231 in Mammosphere media ([6]; 2.5 uM) | 3D sphere count of MDAMB231 in Mammosphere media ([6]; 25 uM) | viability at 0.0025 µM [6] [%] | further results |
| --- | --- | --- | --- | --- | --- | --- | --- | --- | --- | --- | --- | --- | --- | --- | --- | --- | --- | --- | --- | --- | --- |
| c1ccc2c(-c3ccc4c(c3)OCO4)ccc(OCCCCNC3CCCCC3)c2c1 [Formula XIV, N-(4-(1-(benzo[d][1,3]dioxol-5-yl)naphthalen-4-yloxy)butyl)cyclohexan amine] | 0.346 | 0.532 | 0.4 | 0.308 | 56(±3) | 44(±5) | 39(±5) | 24(±3) | 13(±3) | 64 | 51 | 45 | 28 | 15 | 47(±3) | 43(±3) | 21(±7) | 21(±3) | 7(±3) | 57 | IC50 [4, 8]: 2.8 µM; viability at 0.025 µM [6]: 52%; viability at 0.25 µM [6]: 26%; viability at 2.5 µM [6]: 26%; viability at 25 µM [6]: 9% |
| c1cnc2c(OCCCCNC3CCCCC3)ccc(-c3ccc4c(c3)OCO4)c2c1 [Formula XVII, N-(4-(5-(benzo[d][1,3]dioxol-5-yl)quinolin-8-yloxy)butyl)cyclohexanamine] | 2.82 | 1.99 | – | 2.13 | – | – | – | – | – | – | – | – | – | – | – | – | – | – | – | – | – |
| COc1cc2c(OCCCCN3CCOCC3)c3c(c(-c4ccc5c(c4)OCO5)c2cc1OC)C(=O)OC3 [Formula VI, 4-(4-morpholinobutoxy)-9-(benzo[d][1,3]dioxol-5-yl)-6,7-dimethoxynaphtho[2,3-c]furan-1(3H)-one] | – | – | – | – | – | 49(±2) | 41(±2) | 37(±2) | 27(±2) | – | 57 | 48 | 43 | 31 | – | – | – | – | – | – | IC50 [2]: 4.05 µM; 3D sphere count of PC3 in Prostosphere media ([3]; 250 uM): 0(±0); viability at 250 µM ([3]; read-out: % Viability of spheres (PC3), 250 uM, GCD = 100% viability): 0%; IC50 [4]: 2.69 µM; IC50 [5]: 2.65 µM; IC50 [7]: 10.9 µM |
| c1cc2c(cc1-c1ccc(OCCN3CCOCC3)c3c1CCCC3)OCO2 [Formula XXI, 4-(2-(5-(benzo[d][1,3]dioxol-5-yl)-1,2,3,4-tetrahydronaphthalen-8-yloxy)ethyl) morpholine] | 3.86 | 4.26 | 2.75 | 4.2 | 62(±4) | 54(±2) | 50(±2) | 45(±3) | 36(±2) | 78 | 68 | 63 | 57 | 45 | – | – | – | – | – | – | IC50 [4, 8]: 4.34 µM |

The remaining compounds from weak to strong by IC50 ([2]; Homo sapiens, DU-145, 48 h), led by results:

| IC50 [1] [µM] | IC50 ([2]; Homo sapiens, DU-145, 48 h) [µM] | IC50 ([5]; 168 h) [µM] | IC50 ([7]; Homo sapiens, MDA-MB-231, 48 h) [µM] | Compound | 3D sphere count of PC3 in Prostosphere media ([3]; 0.0025 uM) | 3D sphere count of PC3 in Prostosphere media ([3]; 0.025 uM) | 3D sphere count of PC3 in Prostosphere media ([3]; 0.25 uM) | 3D sphere count of PC3 in Prostosphere media ([3]; 2.5 uM) | 3D sphere count of PC3 in Prostosphere media ([3]; 25 uM) | viability at 0.0025 µM ([3]; GCD = 100% viability) [%] | viability at 0.025 µM ([3]; GCD = 100% viability) [%] | viability at 0.25 µM ([3]; GCD = 100% viability) [%] | viability at 2.5 µM ([3]; GCD = 100% viability) [%] | viability at 25 µM ([3]; GCD = 100% viability) [%] | 3D sphere count of MDAMB231 in Mammosphere media ([6]; 0.0025 uM) | 3D sphere count of MDAMB231 in Mammosphere media ([6]; 0.025 uM) | 3D sphere count of MDAMB231 in Mammosphere media ([6]; 0.25 uM) | 3D sphere count of MDAMB231 in Mammosphere media ([6]; 2.5 uM) | 3D sphere count of MDAMB231 in Mammosphere media ([6]; 25 uM) | viability at 0.0025 µM [6] [%] | further results |
| --- | --- | --- | --- | --- | --- | --- | --- | --- | --- | --- | --- | --- | --- | --- | --- | --- | --- | --- | --- | --- | --- |
| – | 10.7 | 3.29 | 10.9 | CCOC(=O)N1CCN(CCCCCCOc2c3c(c(-c4ccc5c(c4)OCO5)c4cc(OC)c(OC)cc24)C(=O)OC3)CC1 [Formula IX, ethyl 4-(6-(9-(benzo[d][1,3]dioxol-5-yl)-1,3-dihydro-6,7-dimethoxy-1-oxonaphtho[2,3-c]furan-4-yloxy)hexyl)piperazine-1-carboxylate Hydrochloride] | – | – | – | – | – | – | – | – | – | – | – | – | – | – | – | – | IC50 ([4]; hydrochloride): 0.327 µM |
| 5.52 | 3.52 | – | 3.8 | c1cnc2c(OCCCCCCN3CCOCC3)ccc(-c3ccc4c(c3)OCO4)c2c1 [Formula XVI, 8-(6-morpholinohexyloxy)-5-(benzo[d][1,3]dioxol-5-yl)quinoline] | 72(±6) | 53(±4) | 42(±4) | 34(±3) | 25(±4) | 86 | 63 | 50 | 40 | 30 | 61(±3) | 51(±3) | 42(±3) | 37(±3) | 22(±4) | 71 | viability at 0.025 µM [6]: 59%; viability at 0.25 µM [6]: 49%; viability at 2.5 µM [6]: 43%; viability at 25 µM [6]: 25% |
| 7.82 | 2.51 | 3.06 | 4.95 | O=C(CCCOc1ccc(-c2ccc3c(c2)OCO3)c2ccccc12)N1CCOCC1 [Formula XV, 4-(1-(benzo[d][1,3]dioxol-5-yl)naphthalen-4-yloxy)-1-morpholinobutan-1-one] | – | – | – | – | – | – | – | – | – | – | 53(±2) | 51(±5) | 40(±6) | 31(±3) | 16(±4) | 64 | IC50 [4, 8]: 5.36 µM; viability at 0.025 µM [6]: 62%; viability at 0.25 µM [6]: 49%; viability at 2.5 µM [6]: 38%; viability at 25 µM [6]: 19% |
| 2.45 | 1.48 | – | 1.35 | C=CCNCCCCCCOc1ccc(-c2ccc3c(c2)OCO3)c2c1CCCC2 [Formula XXII, 6-(5-(benzo[d][1,3]dioxol-5-yl)-1,2,3,4-tetrahydronaphthalen-8-yloxy)-N-allylhexan-1-amine] | 55(±3) | 44(±4) | 36(±3) | 25(±3) | 14(±3) | 66 | 52 | 43 | 30 | 17 | 47(±3) | 34(±3) | 24(±4) | 9(±2) | 0(±0) | 55 | viability at 0.025 µM [6]: 39%; viability at 0.25 µM [6]: 28%; viability at 2.5 µM [6]: 10%; viability at 25 µM [6]: 0% |
